# Data taken from patent US20160046618A1, “Cyclopropyl Fused Thiazin-2-Amine Compounds as Beta-Secretase Inhibitors and Methods of Use” (AMGEN INC., priority 2014, published 2016).
# Where two headings read alike, the source gives them in different places.
# Experiments:
# human recombinant BACE1 = human recombinant BACE1 (Homo sapiens (Human), UniProt P56817); test: In vitro enzymatic BACE1 FRET assay; type: biochemical; conditions: read-out: IC50 IP (μM) BACE1 enzyme
# Summary of the method: (§1)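 Protease purified by Ni-NTA chromatography; start with FRET substrate (50 nM); incubate 1 h; quench with Tris to neutral pH; read fluorescence ex 488 / em 590 nm.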
# human recombinant BACE2 = human recombinant BACE2 (Homo sapiens (Human), UniProt Q9Y5Z0); test: In vitro enzymatic BACE2 FRET assay; type: biochemical; conditions: read-out: IC50 IP (μM) BACE2 enzyme
# Chain of human recombinant BACE2 (Q9Y5Z0 63-518): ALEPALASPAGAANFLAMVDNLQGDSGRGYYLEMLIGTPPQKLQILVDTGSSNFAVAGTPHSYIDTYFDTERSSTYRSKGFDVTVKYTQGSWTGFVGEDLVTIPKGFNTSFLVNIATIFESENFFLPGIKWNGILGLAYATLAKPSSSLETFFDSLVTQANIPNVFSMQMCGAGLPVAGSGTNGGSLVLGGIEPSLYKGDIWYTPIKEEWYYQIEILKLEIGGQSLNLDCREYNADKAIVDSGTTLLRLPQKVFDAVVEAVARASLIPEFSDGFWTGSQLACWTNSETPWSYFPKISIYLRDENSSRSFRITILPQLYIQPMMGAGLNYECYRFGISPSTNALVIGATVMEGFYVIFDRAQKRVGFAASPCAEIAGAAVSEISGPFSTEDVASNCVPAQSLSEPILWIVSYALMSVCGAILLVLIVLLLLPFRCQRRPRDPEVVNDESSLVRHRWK
# Summary of the method: as §1
# [1] = tested on: Aβ40 in conditioned medium of cells stably expressing Amyloid Precursor Protein (APP); test: In vitro BACE-1 cell-based assay (Aβ40 sandwich ELISA); conditions: read-out: IC50 IP (μM) BACE1 cell
# Summary of the method: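 APP-expressing cells treated 24 h at 37 °C with compound in 10-point dose response (top 100 μM or 10 μM, 0.1% DMSO final). Secreted Aβ40 in conditioned medium quantified by sandwich ELISA (pAb40 capture, biotinylated 6E10 detection, time-resolved europium fluorescence); IC50 from percent inhibition versus concentration.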
# Recombinant Cat D = Recombinant Cat D (Homo sapiens (Human), UniProt P07339); test: In vitro enzymatic Cathepsin D (Cat D) FRET assay; type: biochemical; conditions: read-out: IC50 IP (μM) CatD
# Chain of Recombinant Cat D (P07339 65-412): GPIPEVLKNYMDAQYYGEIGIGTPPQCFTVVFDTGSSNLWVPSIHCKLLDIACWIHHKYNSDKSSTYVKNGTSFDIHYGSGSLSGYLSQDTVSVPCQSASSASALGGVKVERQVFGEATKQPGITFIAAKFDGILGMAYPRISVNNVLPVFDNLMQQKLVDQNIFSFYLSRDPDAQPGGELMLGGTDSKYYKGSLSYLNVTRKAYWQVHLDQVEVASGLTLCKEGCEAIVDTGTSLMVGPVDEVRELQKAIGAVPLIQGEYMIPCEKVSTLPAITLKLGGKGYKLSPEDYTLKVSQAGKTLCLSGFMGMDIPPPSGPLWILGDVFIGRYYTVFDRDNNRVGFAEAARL
# Summary of the method: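 CHO-expressed enzyme; buffer 0.05 M citrate pH 3.5, 5 mM CHAPS, 10% DMSO final. Start with FRET substrate 20 nM, 1 h incubation, Tris stop (pH to neutral), fluorescence ex 500 nm/em 580 nm.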
# Aβ 40 in rat CSF = test: In vivo inhibition of beta-secretase: Aβ40 reduction in rat CSF; conditions: after 4 h
# Summary of the method: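 Male Sprague Dawley rats (200 g) dosed orally in 2% HPMC, 1% Tween80, pH 2.2, at 3, 10 or 30 mg/kg; CSF and brain taken 4 h later. Brain homogenate centrifuged at 355,000 g; Aβ40 measured by ECL sandwich ELISA (4G8 capture, Abeta40 C-terminal Fab detection), as % reduction versus vehicle controls.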
# Aβ 40 in rat brain = test: In vivo inhibition of beta-secretase: Aβ40 reduction in rat brain; conditions: after 4 h
# Summary of the method: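 Rats were dosed by oral gavage at up to 100 mg/kg in 2% HPMC, 1% Tween80, pH 2.2, with vehicle-only controls. Supernatant Aβ40 was measured by ECL sandwich ELISA with biotinylated-4G8 capture and C-terminal Fab40 detection.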
# Chain of human recombinant BACE1 (P56817 46-501): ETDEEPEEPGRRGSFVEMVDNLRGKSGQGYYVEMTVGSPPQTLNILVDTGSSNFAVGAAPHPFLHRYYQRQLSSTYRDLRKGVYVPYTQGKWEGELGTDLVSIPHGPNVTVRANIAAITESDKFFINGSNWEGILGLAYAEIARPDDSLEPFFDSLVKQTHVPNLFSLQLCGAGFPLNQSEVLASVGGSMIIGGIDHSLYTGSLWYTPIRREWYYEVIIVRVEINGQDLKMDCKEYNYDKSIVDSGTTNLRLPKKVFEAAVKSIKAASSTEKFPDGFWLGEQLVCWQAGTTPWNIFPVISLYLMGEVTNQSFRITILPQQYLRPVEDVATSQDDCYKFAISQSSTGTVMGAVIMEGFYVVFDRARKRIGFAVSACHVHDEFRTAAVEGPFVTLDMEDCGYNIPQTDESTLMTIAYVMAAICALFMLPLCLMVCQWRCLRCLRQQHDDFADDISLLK
IC50 (human recombinant BACE1; BACE1 FRET enzyme assay) [µM],IC50 (human recombinant BACE2; BACE2 FRET enzyme assay) [µM],IC50 ([1]; BACE1 cell-based assay) [µM],IC50 (Recombinant Cat D; Cathepsin D FRET enzyme assay) [µM],IC50 (human recombinant BACE1) [µM],IC50 (human recombinant BACE2) [µM],IC50 [1] [µM],IC50 (Recombinant Cat D) [µM],SMILES,% Aβ 40 reduction in rat CSF at 10 mpk (Aβ 40 in rat CSF) [%],% Aβ 40 reduction in rat brain at 10 mpk (Aβ 40 in rat brain) [%],% Aβ 40 reduction in rat CSF (3 mpk) (Aβ 40 in rat CSF; 3 mpk),% Aβ 40 reduction in rat brain (3 mpk) (Aβ 40 in rat brain; 3 mpk)
0.00551,0.0022,0.00871,74.5,,,,,"NC1=N[C@](CF)(c2cc(NC(=O)c3ccc(Cl)cn3)ccc2F)[C@@H]2C[C@@H]2S1 [Example 1, N-(3-((1S,5S,6S)-3-amino-5-(fluoromethyl)-2-thia-4-azabicyclo[4.1.0]hept-3-en-5-yl)-4-fluorophenyl)-5-chloro-2-pyridinecarboxamide]",58,28,,
,,,,0.000643,0.0157,0.00228,1060,"Cc1nc(OCc2ncco2)cnc1C(=O)Nc1cc(F)c(F)c([C@@]2(C)N=C(N)S[C@@]3(CF)C[C@H]32)c1 [Example 803, N-(3-((1S,5S,6S)-3-amino-1-(fluoromethyl)-5-methyl-2-thia-4-azabicyclo[4.1.0]hept-3-en-5-yl)-4,5-difluorophenyl)-3-methyl-5-(1,3-oxazol-2-ylmethoxy)-2-pyrazinecarboxamide]",59,45,,
0.00548,0.00618,0.00899,> 400,,,,,"Cc1cc(C#N)cnc1C(=O)Nc1cc(F)c(F)c([C@@]2(CF)N=C(N)S[C@H]3C[C@H]32)c1 [Example 13, N-(3-((1S,5S,6S)-3-amino-5-(fluoromethyl)-2-thia-4-azabicyclo[4.1.0]hept-3-en-5-yl)-4,5-difluorophenyl)-5-cyano-3-methyl-2-pyridinecarboxamide]",70,56,,
0.00631,0.0301,0.00352,252,,,,,"COC[C@]12C[C@H]1[C@@](C)(c1cc(Nc3ncnc4cc(C#N)cnc34)cc(F)c1F)N=C(N)S2 [Example 46, 4-((3-((1S,5S,6S)-3-amino-1-(methoxymethyl)-5-methyl-2-thia-4-azabicyclo[4.1.0]hept-3-en-5-yl)-4,5-difluorophenyl)amino)pyrido[3,2-d]pyrimidine-7-carbonitrile]",73,67,,
0.00139,< 0.00203,0.00196,> 44.4,,,,,"C[C@]1(c2cc(Nc3nccc4cc(C#N)cnc34)cc(F)c2F)N=C(N)S[C@@]2(CO)C[C@H]21 [Example 54, 8-((3-((1S,5S,6S)-3-amino-1-(hydroxymethyl)-5-methyl-2-thia-4-azabicyclo[4.1.0]hept-3-en-5-yl)-4,5-difluorophenyl)amino)-1,7-naphthyridine-3-carbonitrile]",18,19,,
,,,,0.0009,0.0258,0.002,447,"C#CCOc1cnc2c(Nc3cc(F)c(F)c([C@@]4(C)N=C(N)S[C@@]5(CF)C[C@H]54)c3)ncnc2c1 [Example 813, N-(3-((1S,5S,6S)-3-amino-1-(fluoromethyl)-5-methyl-2-thia-4-azabicyclo[4.1.0]hept-3-en-5-yl)-4,5-difluorophenyl)-7-(2-propyn-1-yloxy)pyrido[3,2-d]pyrimidin-4-amine]",68,50,,
0.0104,0.0275,0.0119,> 400,,,,,"N#Cc1ccc(C(=O)Nc2cc(F)c(F)c([C@@]3(CF)N=C(N)S[C@H]4C[C@H]43)c2)nc1 [Example 11, N-(3-((1S,5S,6S)-3-amino-5-(fluoromethyl)-2-thia-4-azabicyclo[4.1.0]hept-3-en-5-yl)-4,5-difluorophenyl)-5-cyano-2-pyridinecarboxamide]",,,41 (3 mpk) %,25 (3 mpk) %
,,,,0.0139,0.846,0.0153,1110,"Cc1cc(OCC(F)(F)F)cnc1C(=O)Nc1ccc(F)c([C@@]2(C)N=C(N)S[C@@]3(C(F)F)C[C@@H]23)c1 [Example 680, N-(3-((1S,5S,6S)-3-amino-1-(difluoromethyl)-5-methyl-2-thia-4-azabicyclo[4.1.0]hept-3-en-5-yl)-4-fluorophenyl)-3-methyl-5-(2,2,2-trifluoroethoxy)-2-pyridinecarboxamide]",30,8,,
,,,,0.000649,0.00714,0.0038,> 400,"C#CCOc1cnc2c(Nc3cc(F)c(F)c([C@@]4(C)N=C(N)S[C@@]5(C(N)=O)C[C@H]54)c3)nccc2n1 [Example 911, (1S,5S,6S)-3-amino-5-(2,3-difluoro-5-((2-(2-propyn-1-yloxy)pyrido[3,4-b]pyrazin-5-yl)amino)phenyl)-5-methyl-2-thia-4-azabicyclo[4.1.0]hept-3-ene-1-carboxamide]",21,20,,
,,,,0.000782,0.0516,0.00904,476,"C#CCOc1cnc2c(Nc3ccc(F)c([C@@]4(C)N=C(N)S[C@]5(C(C)(C)O)[C@H]4C5(F)F)c3)nccc2n1 [Example 712, 2-((1S,5S,6R)-3-amino-7,7-difluoro-5-(2-fluoro-5-((2-(2-propyn-1-yloxy)pyrido[3,4-b]pyrazin-5-yl)amino)phenyl)-5-methyl-2-thia-4-azabicyclo[4.1.0]hept-3-en-1-yl)-2-propanol]",52,32,,
,,,,0.00114,0.0449,0.0216,598,"C#CCOc1cnc2c(Nc3cc(F)c(F)c([C@@]4(CF)N=C(N)S[C@H]5C[C@H]54)c3)nccc2n1 [Example 841, N-(3-((1S,5S,6S)-3-amino-5-(fluoromethyl)-2-thia-4-azabicyclo[4.1.0]hept-3-en-5-yl)-4,5-difluorophenyl)-2-(2-propyn-1-yloxy)pyrido[3,4-b]pyrazin-5-amine]",58,44,,
,,,,0.00186,0.0184,0.0035,183,"C[C@]1(c2cc(Nc3nccc4nc(OCc5ncco5)cnc34)ccc2F)N=C(N)S[C@]2(CO)[C@H]1C2(F)F [Example 705, ((1S,5S,6R)-3-amino-7,7-difluoro-5-(2-fluoro-5-((2-(1,3-oxazol-2-ylmethoxy)pyrido[3,4-b]pyrazin-5-yl)amino)phenyl)-5-methyl-2-thia-4-azabicyclo[4.1.0]hept-3-en-1-yl)methanol]",28,1,,
0.0157,0.00728,0.0144,> 133,,,,,"N#Cc1cnc2c(Nc3ccc(F)c([C@@]4(CF)N=C(N)S[C@H]5CC54)c3)nccc2c1 (stereo in doubt) [Example 38, 8-((3-((1S,5S,6S)-3-amino-5-(fluoromethyl)-2-thia-4-azabicyclo[4.1.0]hept-3-en-5-yl)-4-fluorophenyl)amino)-1,7-naphthyridine-3-carbonitrile]",66,44,,
,,,,0.00962,0.2,0.0129,780,"C#CCOc1cnc2c(Nc3ccc(F)c([C@@]4(CF)N=C(N)S[C@H]5C[C@H]54)c3)ncnc2c1 [Example 941, N-(3-((1S,5S,6S)-3-amino-5-(fluoromethyl)-2-thia-4-azabicyclo[4.1.0]hept-3-en-5-yl)-4-fluorophenyl)-7 (2-propyn-1-yloxy)pyrido[3,2-d]pyrimidin-4-amine]",41,2,,
,,,,0.000426,0.0101,0.00195,> 400,"C#CCOc1cnc2c(Nc3cc(F)c(F)c([C@@]4(C)N=C(N)S[C@@]5(C(=O)NC)C[C@H]54)c3)nccc2n1 [Example 915, (1S,5S,6S)-3-amino-5-(2,3-difluoro-5-((2-(2-propyn-1-yloxy)pyrido[3,4-b]pyrazin-5-yl)amino)phenyl)-N,5-dimethyl-2-thia-4-azabicyclo[4.1.0]hept-3-ene-1-carboxamide]",51,47,,
